Test results published in patent US12258425B2, “Peptide compositions and methods of use” (priority 2015, dated 2025).
Where a SMILES comes first, the peptide text is derived from it.

How the values were obtained:
[1] = pH-solubility titration (visual: precipitate, turbidity, viscosity, gel); assay type: physicochemical
Protocol: Compound 1 obtained as a trihydrochloride salt, as described in Example 1, and was screened for aqueous solubility at different pHs, by carrying out pH titrations according to the following protocol. In some cases Met-12 was run through an identical experimental procedure to determine its solubility pH profile under the same conditions.
Compound 1 (10 mg) was dissolved in water (270-900 ? L) in a 2 mL clear plastic centrifuge tube with vortexing to give a pH ˜2.4 solution. […] This solution was then diluted with the appropriate amount of cosolvent or other excipient (sugar, surfactant etc.) to produce a clear acidic solution of 10 mg of Compound 1 in […] of the test solution at room temperature ([…]). Small aliquots of a basic solution (usually sodium hydroxide 1.0 M or 0.1 M, but sometimes other bases when investigating buffers) were added using a microliter syringe. Between additions the solution was mixed by vortexing, and the solution was inspected visually for precipitates of various types, turbidity, as a likely sign of microprecipitates, and viscosity to detect gel formation. pH measurements were taken at all these observation points. Some experiments titrated from the endogenous low pH to pH 10, but later titrations were not carried much above pH 7, or sometimes even lower.

[2] = rabbit, in vivo
Protocol: (§1) This study was conducted to determine the concentrations of Compound 1 in vitreous humor (VH) and retina tissue following intravitreal injections of male Dutch Belted rabbits. Concentrations were determined in tissues at 24, 72, 168, and 240 hours post-dose of a 50 μL bilateral intravitreal (IVT) dose.
(§2) Test system included the following: • Species/Strain/Gender: Male Dutch Belted Rabbits • Supplier: Covance Research Products, Inc. • Age Range: 4 to 5 months • Weight at Receipt (Range of • Weights): 1.51-1.85 kg • Administration Route: Intravitreal (IVT) injection • Duration of Treatment: Single Dose per eye • Formulation Concentrations: 2.0, 1.0, and 0.5 mg/mL Compound 1 triacetate • Dose Volume: 50 μL per eye
(§3) An intravitreal (IVT) injection ocular dose of 50 μL was administered to the globe of each of Dutch Belted rabbit eye.
(§4) At the respective time points the rabbits were euthanized by intravenous barbiturate overdose, and eyes were enucleated and snap frozen. Vitreous humor and retina were collected from all animals and analyzed for Compound 1 by LC-MS/MS

[3] = rat, in vivo
Protocol: (§5) Concentrations were determined in tissues at 24 (Group 1), and 72 hours (Groups 1 and 2) post-dose of a 5 μL bilateral intravitreal (IVT) dose.
(§6) Test system included the following: • Species/Strain/Gender: Norway Brown Rats • Supplier: Charles River, Inc. • Age Range: 1 to 2 months • Weight at Receipt (Range of • Weights): 165.9-181.2 g • Administration Route: Intravitreal (IVT) injection • Duration of Treatment: Single dose per eye • Formulation Concentrations: 0.06 mg/mL ONL-1204 triacetate • Dose Volume: 5 μL per eye Harvesting of Ocular Tissues
(§7) Rats were euthanized by intravenous barbiturate overdose, and eyes were enucleated and snap frozen. Vitreous humor (VH) and retina were collected from all animals and analyzed for Compound 1 by LC-MS/MS.
(§8) For each VH unknown or control blank: Weigh VH into a homogenization tube. Add 4 times the VH weight (mg) of ACN:water:1 M hydrochloric acid (70:20:10, v/v/v) (μL) to the homogenization tube. Add zirconium oxide beads, 2.8 and 1.4 mm size. Homogenize all samples on Precellys®: 5500 rpm, 3×30 second cycles, and 20 seconds between cycles, at a temperature between −10 to 0° C.
(§9) For each retina unknown or control blank: • Weigh retina tissue into a homogenization tube. • Add 4 times the tissue weight (mg) of ACN:water:1 M hydrochloric acid (70:20:10, v/v/v) (μL) to the homogenization tube. • Add zirconium oxide beads, 1.4 mm size. • Homogenize all samples on Precellys®: 5500 rpm, 3×30 second cycles, and 20 seconds between cycles, at a temperature between −10 to 0° C. Preparation of Standards, Samples, and Blanks Preparation of Calibration Stock and Working Standards
(§10) One hundred (100) μL of each vitreous humor sample with ACN: formic acid (1000:1, v/v) was then aliquoted. One hundred (100) μL of DMSO:water:formic acid (50:40:10) was added to each vitreous humor sample. The samples were vortex mixed then centrifuged for 10 minutes at 14,000 rpm (4° C.). To 50.0 μL supernatant, 100 μL of working internal standard (50,000 ng/mL APi1887 in water) (water for the blank without internal standard), and 150 μL of water were added. The samples were then vortex mixed and transferred to an autosampler plate for analysis.
(§11) In a polypropylene tube, 50 μL of Brown Norway rat unknown homogenate, bovine control blank or calibration standard Bovine homogenate was added. Fifty (50) μL of DMSO:water:formic acid (50:40:10) was added to each sample. The samples were then vortex mixed and centrifuged for 10 minutes at 14,000 rpm (4° C.). Eighty (80) μL of each sample supernatant was then aliquoted to a 96-well autosampler plate. Forty (40) μL of working internal standard (5,000 ng/mL APi1887 in water) (water for the blank without internal standard), and 120 μL of water were added. The samples were then mixed with a multichannel pipette and analyzed.

in vivo [4] = conditions: male, Dutch Belted, rabbit
Protocol: as §1, §2, §3, §4

in vivo [5] = conditions: Brown Norway, rat, 0.3 ug/eye, Mean concentration in rat retina
Protocol: as §5, §6, §7, §8, §9, §10, §11

[6] = Rabbit intravitreal ocular pharmacokinetic study (vitreous humor and retina); conditions: IVT in Poloxamer or Polysorbate formulations, 10 day course
Protocol: as §1, §2, §3, §4

[7] = 0.025 mg/eye, Calculated Concentration in vitreous humor
[8] = 0.05 mg/eye, Calculated Concentration in retina
[9] = 0.05 mg/eye, Calculated Concentration in vitreous humor
[10] = 0.05 mg/eye, Mean concentration in retina
[11] = 0.1 mg/eye, Calculated Concentration in retina
[12] = 0.1 mg/eye, Calculated Concentration in vitreous humor
[13] = 0.1 mg/eye, Mean concentration in retina

SMILES: CC[C@H](C)[C@H](NC(=O)[C@H](Cc1ccc(O)cc1)NC(=O)[C@H](CC(N)=O)NC(=O)[C@@H](NC(=O)[C@H](C)NC(=O)CNC(=O)[C@H](CC(C)C)NC(=O)[C@H](Cc1ccc(O)cc1)NC(=O)[C@@H](NC(=O)[C@H](Cc1cnc[nH]1)NC(=O)[C@@H](N)Cc1cnc[nH]1)[C@@H](C)CC)C(C)C)C(=O)N[C@@H](Cc1ccc(O)cc1)C(N)=O [Compound 1, His-His-Ile-Tyr-Leu-Gly-Ala-Val-Asn-Tyr-Ile-Tyr-NHz] (H-HHIYLGAVNYIY-NH2)
- Aqueous solubility (in words) [1]: poor aqueous solubility above pH˜3
- Behaviour on standing overnight [1]: the solution gelled, and the pH dropped by about 0.2 units
- solubility ([1]; pH 2.4): ≥ 40 mg/mL
- Terminal t1/2 in Retina ([2]; male, Dutch Belted): 199 h
- Mean concentration in retina ([2]; male, Dutch Belted, 0.025 mg/eye, 168 h): 1440 ng/g
- VH AUC0-last of Group 1 (2 mg/mL) relative to Groups 2 and 3 (0.5 mg/mL) [2]: approximate four times greater AUC
- Clearance from VH in the first 24 hours [3]: about half the drug cleared the VH
- Terminal half-life in VH [3]: on the order of several days
- level at 24 h (in vivo [4]; [7]): 22000 ng/mL
- level at 168 h (in vivo [4]; [7]): 22300 ng/mL
- level at 240 h (in vivo [4]; [7]): 18000 ng/mL
- tissue level at time at 168 h (in vivo [4]; 0.025 mg/eye, Mean concentration in retina): 912 ng/g
- tissue level at time at 72 h (in vivo [4]; [8]): 172 ng/g
- tissue level at time at 168 h (in vivo [4]; [8]): 204 ng/g
- tissue level at time at 240 h (in vivo [4]; [8]): 109 ng/g
- level at 24 h (in vivo [4]; [9]): 44000 ng/mL
- level at 72 h (in vivo [4]; [9]): 39600 ng/mL
- level at 168 h (in vivo [4]; [9]): 25900 ng/mL
- tissue level at time at 24 h (in vivo [4]; [10]): 206 ng/g
- tissue level at time at 72 h (in vivo [4]; [10]): 95 ng/g
- tissue level at time at 168 h (in vivo [4]; [10]): 51 ng/g
- tissue level at time at 240 h (in vivo [4]; [10]): 27.3 ng/g
- level at 240 h (in vivo [4]; [11]): 112 ng/mL
- tissue level at time at 240 h (in vivo [4]; [11]): 559 ng/g
- level at 24 h (in vivo [4]; [12]): 75900 ng/mL
- level at 72 h (in vivo [4]; [12]): 125000 ng/mL
- level at 168 h (in vivo [4]; [12]): 84800 ng/mL
- level at 240 h (in vivo [4]; [12]): 79400 ng/mL
- tissue level at time at 24 h (in vivo [4]; [13]): 596 ng/g
- tissue level at time at 72 h (in vivo [4]; [13]): 1630 ng/g
- tissue level at time at 168 h (in vivo [4]; [13]): 354 ng/g
- tissue level at time at 240 h (in vivo [4]; [13]): 490 ng/g
- half-life (in vivo [4]; Terminal t1/2 in Retina): 168 h
- half-life (in vivo [4]; t1/2 in VH): > 900 h
- tissue level at time at 24 h (in vivo [5]): 1210 ng/g
- tissue level at time at 72 h (in vivo [5]): 570 ng/g
- Irritation / tolerability [6]: no signs of irritation or tolerability issues
